Assay results taken from patent publication US11905260B1, “N′-(1-naphthoyloxy)-2-(benzo[d]oxazol-2-yl)acetimidamide as an antimicrobial compound” (KING FAISAL UNIVERSITY, priority 2023, dated 2024).

Columns and labels:
different microbes = test: antimicrobial activity, overall statement; type: cell-based; conditions: summary in words
Description: (§1) The agar plate disc-diffusion method was applied. Sterilized filter papers (6 mm in diameter) were wetted with 10 μL of a solution N′-(1-naphthoyloxy)-2-(benzo[d]oxazol-2-yl)acetimidamide (3) to be tested, containing 10 mg/mL in DMSO, and the discs were allowed to air dry. The discs were then placed onto the surface of agar plates (nutrient agar for bacteria and Sabouraud's dextrose agar for fungi) seeded with the test organism. Each plate contained 15 mL of the agar medium, previously seeded with 0.2 mL of the broth culture of each organism pregrown for 18 hours. The plates were incubated at 37° C. for 48 hours, and 72 hours for fungi. The inhibition zones was measured in mm. Discs impregnated with DMSO were used as a control, and its inhibition zone was subtracted from the tested compound actual inhibition zone.

[1] = test system: Chrysosporium keratinophilum; test: agar plate disc-diffusion, antifungal activity by inhibition zone; type: cell-based; conditions: Sabouraud's dextrose agar, 72 hours
Description: as §1, with “Sterilized filter papers (6 mm in diameter) were wetted with 10 μL of a solution N′-(1-naphthoyloxy)-2-(benzo[d]oxazol-2-yl)acetimidamide (3) to be tested, containing 10 mg/mL in DMSO, and the discs were allowed to air dry.” left out

Aspergillus flavus = test: as above; type: cell-based; conditions: Sabouraud's dextrose agar, 72 hours
Description: as §1, with “Sterilized filter papers (6 mm in diameter) were wetted with 10 μL of a solution N′-(1-naphthoyloxy)-2-(benzo[d]oxazol-2-yl)acetimidamide (3) to be tested, containing 10 mg/mL in DMSO, and the discs were allowed to air dry.” left out

Pseudomonas aeruginosa = test: agar plate disc-diffusion, antibacterial activity by inhibition zone; type: cell-based; conditions: nutrient agar, 37° C., 48 hours
Description: as §1, with “Sterilized filter papers (6 mm in diameter) were wetted with 10 μL of a solution N′-(1-naphthoyloxy)-2-(benzo[d]oxazol-2-yl)acetimidamide (3) to be tested, containing 10 mg/mL in DMSO, and the discs were allowed to air dry.” left out

Staphylococcus aureus = test: as above; type: cell-based; conditions: nutrient agar, 37° C., 48 hours
Description: as §1, with “Sterilized filter papers (6 mm in diameter) were wetted with 10 μL of a solution N′-(1-naphthoyloxy)-2-(benzo[d]oxazol-2-yl)acetimidamide (3) to be tested, containing 10 mg/mL in DMSO, and the discs were allowed to air dry.” left out

Escherichia coli = test: as above; type: cell-based; conditions: nutrient agar, 37° C., 48 hours
Description: as §1, with “Sterilized filter papers (6 mm in diameter) were wetted with 10 μL of a solution N′-(1-naphthoyloxy)-2-(benzo[d]oxazol-2-yl)acetimidamide (3) to be tested, containing 10 mg/mL in DMSO, and the discs were allowed to air dry.” left out

Bacillus cereus = test: as above; type: cell-based; conditions: nutrient agar, 37° C., 48 hours
Description: as §1, with “Sterilized filter papers (6 mm in diameter) were wetted with 10 μL of a solution N′-(1-naphthoyloxy)-2-(benzo[d]oxazol-2-yl)acetimidamide (3) to be tested, containing 10 mg/mL in DMSO, and the discs were allowed to air dry.” left out

[2] = A = concentration of comp. = 10,000 μL
[3] = B = concentration of comp. = 30,000 μL
[4] = C = concentration of comp. = 50,000 μL

Compound: N/C(Cc1nc2ccccc2o1)=N\OC(=O)c1cccc2ccccc12 [compound 3, N′-(1-naphthoyloxy)-2-(benzo[d]oxazol-2-yl)acetimidamide]
- antimicrobial activities against different microbes (different microbes): excellent antimicrobial activities
- inhibition zone, Chrysosporium keratinophilum [1, 2]: 27 mm
- inhibition zone, Chrysosporium keratinophilum [1, 3]: 30 mm
- inhibition zone, Chrysosporium keratinophilum [1, 4]: 51 mm
- inhibition zone, Aspergillus flavus (Aspergillus flavus; [2]): 24 mm
- inhibition zone, Aspergillus flavus (Aspergillus flavus; [3]): 26 mm
- inhibition zone, Aspergillus flavus (Aspergillus flavus; C =): 37 mm
- inhibition zone, Pseudomonas aeruginosa (Pseudomonas aeruginosa; [2]): 22 mm
- inhibition zone, Pseudomonas aeruginosa (Pseudomonas aeruginosa; [3]): 24 mm
- inhibition zone, Pseudomonas aeruginosa (Pseudomonas aeruginosa; [4]): 38 mm
- inhibition zone, Staphylococcus aureus (Staphylococcus aureus; [2]): 26 mm
- inhibition zone, Staphylococcus aureus (Staphylococcus aureus; [3]): 30 mm
- inhibition zone, Staphylococcus aureus (Staphylococcus aureus; [4]): 38 mm
- inhibition zone, Escherichia coli (Escherichia coli; [2]): 27 mm
- inhibition zone, Escherichia coli (Escherichia coli; [3]): 34 mm
- inhibition zone, Escherichia coli (Escherichia coli; [4]): 51 mm
- inhibition zone, Bacillus Cereus (Bacillus cereus; [2]): 23 mm
- inhibition zone, Bacillus Cereus (Bacillus cereus; [3]): 27 mm
- inhibition zone, Bacillus Cereus (Bacillus cereus; [4]): 36 mm
- melting point: 131 to 132 °C
